We go through 1 compound from patent publication US12109303B2, “Orally dissolving antimicrobial film compositions and methods of their use” (ISHA Therapeutics LLC, priority 2022, dated 2024).

Converted amounts (≈) assume the structure as drawn. Like-named read-outs stand apart in the source and are kept apart here.

Series [1] is described as follows: Solubility in MiliQ water, quantified by HPLC. The series is classed as physicochemical. The conditions noted are these: thermodynamic from solid, 0.5 mL MiliQ water, room temperature, 6 hours shaking, read-out: Solubility: average concentration of amphotericin B.
Series [2] deals with Candida albicans. In words: Growth inhibition assay with resazurin colorimetric readout (MIC48h). It counts as cell-based. Conditions: RPMI 1640, 30° C., 48±2 hours, unmodified drug in DMSO, film in aqueous media. An excerpt:
Tis Example provides a description of antifungal efficacy testing wherein minimum inhibitor concentration (MIC) of the active pharmaceutical ingredient amphotericin B in the orally dissolvable films disclosed herein compared to that of unmodified amphotericin B. The test organism utilized in this experiment was Candida albicans.
Three to five colonies of a single Candida albicans strain were selected from stock YPD agar (agar comprising yeast extract, peptone, and dextrose; also referred to as YEPD agar) plates and suspended in Roswell Park Memorial Institute (RPMI) 1640 medium. The process was repeated to form a number of suspensions of Candida albicans. The Candida albicans suspensions were then each diluted to achieve an initial inoculum with an Abs600 of 0.010.
Test compositions of unmodified amphotericin B in DMSO and orally dissolvable films of amphotericin B in aqueous media were added, followed by serial dilution of the RPMI media.
A growth inhibition assay was performed in triplicate and results determined using a resazurin colorimetric assay. All plated compositions were incubated at 30° C. for 48±2 hours. […] After incubation, 20 μL of resazurin dye (0.02% w/v) was added to each well and observed for a change in dye color to determine cell viability.
(In general: Resazurin is reduced to fluorescent resorufin, in cell work by metabolically active cells.)

Series [3] has as its system Candida albicans. Kind of series: Resazurin microtiter assay (REMA) MIC. The series is classed as cell-based. The procedure: (§1) This Example provides a description of antifungal efficacy testing wherein minimum inhibitor concentration (MIC) of the active pharmaceutical ingredient amphotericin B in the orally dissolvable films disclosed herein compared to that of unmodified amphotericin B. The test organisms utilized in this experiment were Candida tropicalis and Candida albicans.
(§2) A resazurin microtiter assay (REMA) assay was performed using orally dissolvable films prepared according to the process described in Example 3 and unmodified amphotericin B. Samples were run in triplicate as Sets 1-3 for each test material against each pathogen.
(§3) Images of the microtiter plates used to conduct this experiment are shown in FIG. 5, illustrating the results of MIC assay. […] Results of the orally dissolvable film (“ODF (A)”) and unmodified amphotericin B (“AmpB (B)”) against Candida tropicalis and Candida albicans are shown in the microtiter plates on the left and right, respectively. The first row of each microtiter plate (top) contains a positive control (“P.C.”). The second row of each microtiter plate contains a negative control (“N.C.”).

The test system of another series is Candida tropicalis. Kind of series: Resazurin microtiter assay (REMA) MIC. The series is classed as cell-based. The procedure:
as §1, §2, §3

The conditions of series [4]: limited solubility and permeability; cited from earlier work.
The mark [5] stands for this setting: read-out: Minimum Inhibitory Concentration, Avg.
[6] abbreviates: read-out: Minimum Inhibitory Concentration, Set 1.
[7] abbreviates: read-out: Minimum Inhibitory Concentration, Set 2.
Where [8] appears, read: read-out: Minimum Inhibitory Concentration, Set 3.

Turning to `C[C@@H]1[C@H](O)[C@@H](C)/C=C/C=C/C=C/C=C/C=C/C=C/C=C/[C@H](O[C@@H]2O[C@H](C)[C@@H](O)[C@H](N)[C@@H]2O)C[C@@H]2O[C@](O)(C[C@@H](O)C[C@@H](O)[C@H](O)CC[C@@H](O)C[C@@H](O)CC(=O)O[C@H]1C)C[C@H](O)[C@H]2C(=O)O` [AmpB, (1R,3S,5R,6R,9R,11R,15S,16R,17R,18S,19E,21E, 23E, 25E, 27E,29E,31E,33R,35S,36R,37S)-33-[(2R,3S,4S,5S,6R)-4-amino-3,5-di hydroxy-6-methyloxan-2-yl] oxy-1,3,5,6,9,11,17,37-octahydroxy-15,16,18-trimethyl-13-oxo-14,39-dioxabicyclo[33.3.1]nonatriaconta-19,21,23, 25, 27,29,31-heptaene-36-carboxylic acid], in series [1], the solubility at 6 h was found to be 630 µg/mL (≈ 682 µM). For the same compound, the MIC against Candida albicans [2] worked out at 1.25 µM (≈ 1.16 µg/mL); in the series on Candida albicans [3] (read-out: Average MIC), 1.1 µg/mL (≈ 1.19 µM); with Candida albicans [3] (setting [5]) it was 1.1 µg/mL (≈ 1.19 µM); in the series on Candida albicans [3] (setting [6]), 1.1 µg/mL (≈ 1.19 µM); in the series with Candida albicans [3] (setting [7]), 1.1 µg/mL (≈ 1.19 µM); in the series with Candida albicans [3] (setting [8]), 1.1 µg/mL (≈ 1.19 µM). Also, the MIC with Candida tropicalis (read-out: Average MIC), with Candida tropicalis (setting [5]), in the series on Candida tropicalis (setting [6]), in the series with Candida tropicalis (setting [7]) and with Candida tropicalis (setting [8]) was 1.1 µg/mL (≈ 1.19 µM) throughout. Also, the “Biopharmaceutics Classification System (BCS) class” value in series [4] is given as “class IV”.
